Measured values reported in the NIST ThermoML archive (doi:10.1021/je0202174).
± gives the expanded uncertainty stated by the source.

Settings: Liquid

CCC(C)C [2-methylbutane]
viscosity (253.15 K): 0.3893 ± 0.0075 mPa·s
viscosity (258.15 K): 0.3661 ± 0.0072 mPa·s
viscosity (263.15 K): 0.3439 ± 0.0069 mPa·s
viscosity (268.15 K): 0.3201 ± 0.0065 mPa·s
viscosity (273.15 K): 0.3023 ± 0.0063 mPa·s
viscosity (278.15 K): 0.2859 ± 0.0061 mPa·s
viscosity (283.15 K): 0.2703 ± 0.0058 mPa·s
viscosity (288.15 K): 0.2547 ± 0.0056 mPa·s
viscosity (293.15 K): 0.2399 ± 0.0054 mPa·s
viscosity (298.15 K): 0.2289 ± 0.0052 mPa·s
viscosity (303.15 K): 0.2144 ± 0.005 mPa·s
viscosity (308.15 K): 0.2023 ± 0.0049 mPa·s
viscosity (313.15 K): 0.191 ± 0.0047 mPa·s
viscosity (318.15 K): 0.1813 ± 0.0046 mPa·s
viscosity (323.15 K): 0.1724 ± 0.0044 mPa·s
viscosity (328.15 K): 0.1611 ± 0.0043 mPa·s
viscosity (333.15 K): 0.1543 ± 0.0042 mPa·s
viscosity (338.15 K): 0.148 ± 0.0041 mPa·s
viscosity (343.15 K): 0.1411 ± 0.004 mPa·s
viscosity (348.15 K): 0.1332 ± 0.0039 mPa·s
viscosity (353.15 K): 0.1287 ± 0.0038 mPa·s

C1CCCC1 [cyclopentane]
viscosity (253.15 K): 0.7268 ± 0.012 mPa·s
viscosity (258.15 K): 0.6786 ± 0.011 mPa·s
viscosity (263.15 K): 0.6347 ± 0.011 mPa·s
viscosity (268.15 K): 0.593 ± 0.01 mPa·s
viscosity (273.15 K): 0.5567 ± 0.0098 mPa·s
viscosity (278.15 K): 0.5224 ± 0.0093 mPa·s
viscosity (283.15 K): 0.4922 ± 0.0089 mPa·s
viscosity (288.15 K): 0.4646 ± 0.0085 mPa·s
viscosity (293.15 K): 0.4382 ± 0.0081 mPa·s
viscosity (298.15 K): 0.4148 ± 0.0078 mPa·s
viscosity (303.15 K): 0.3923 ± 0.0075 mPa·s
viscosity (308.15 K): 0.3714 ± 0.0072 mPa·s
viscosity (313.15 K): 0.3521 ± 0.0069 mPa·s
viscosity (318.15 K): 0.335 ± 0.0067 mPa·s
viscosity (323.15 K): 0.319 ± 0.0065 mPa·s
viscosity (328.15 K): 0.3048 ± 0.0063 mPa·s
viscosity (333.15 K): 0.2912 ± 0.0061 mPa·s
viscosity (338.15 K): 0.2793 ± 0.0059 mPa·s
viscosity (343.15 K): 0.269 ± 0.0058 mPa·s
viscosity (348.15 K): 0.259 ± 0.0056 mPa·s
viscosity (353.15 K): 0.2502 ± 0.0055 mPa·s
